Measurements from patent US20230040770A1, “HETEROCYCLIC COMPOUND AND USE THEREOF” (TAKEDA PHARMACEUTICAL COMPANY LIMITED, priority 2019, published 2023).

Target: T1, human orexin type 2 receptor (Homo sapiens, UniProt O43614)
T1 construct: expressed in transfected cells
T1 sequence (O43614 1-444): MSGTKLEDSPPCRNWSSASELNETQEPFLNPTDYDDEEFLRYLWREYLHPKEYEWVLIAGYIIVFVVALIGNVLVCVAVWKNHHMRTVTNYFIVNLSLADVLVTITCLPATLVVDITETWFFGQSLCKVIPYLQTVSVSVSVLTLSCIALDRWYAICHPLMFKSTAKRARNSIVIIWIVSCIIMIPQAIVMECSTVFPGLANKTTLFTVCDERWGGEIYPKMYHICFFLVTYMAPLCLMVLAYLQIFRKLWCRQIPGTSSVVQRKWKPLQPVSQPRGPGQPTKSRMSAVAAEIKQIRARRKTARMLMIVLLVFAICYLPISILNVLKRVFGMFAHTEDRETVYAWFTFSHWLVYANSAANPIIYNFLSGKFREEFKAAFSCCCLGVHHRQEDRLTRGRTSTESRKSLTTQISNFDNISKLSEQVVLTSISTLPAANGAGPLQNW
Test: Measurement of orexin type 2 receptor agonist activity (calcium indicator fluorescence, CHO cells forcibly expressing human OX2 receptor)
Type: cell-based
Details: compound at 3 μM; 0% = DMSO, 100% = orexin A (human) 10 nM
Procedure, shortened: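 CHO-dhfr cells stably expressing human OX2R, loaded with Fluo-4 AM (30 min 37 °C, then 30 min RT), then given test compound. Calcium fluorescence read by FDSS over ~2 min. Activity (%) scaled from DMSO (0%) to 10 nM final orexin A (100%).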

| OX2R agonist activity (3 μM, %) | Structure (SMILES) |
| --- | --- |
| 94% | CCS(=O)(=O)N[C@H]1[C@@H](F)CN(C(=O)C2CC2)[C@H]1Cc1cccc(-c2cccc(Cl)c2F)c1F [Example 520, N-[(2S,3R,4S)-2-[(3′-chloro-2,2′-difluoro[1,1′-biphenyl]-3-yl)methyl]-1-(cyclopropanecarbonyl)-4-fluoropyrrolidin-3-yl]ethanesulfonamide] |
| 89% | CCS(=O)(=O)N[C@H]1[C@@H](F)CN(C(=O)C23CC(C2)C3)[C@H]1Cc1cccc(-c2cc(F)ccc2F)c1F [Example 306, N-{(2S,3R,4S)-1-(bicyclo[1.1.1]pentane-1-carbonyl)-4-fluoro-2-[(2,2′,5′-trifluoro[1,1′-biphenyl]-3-yl)methyl]pyrrolidin-3-yl}ethanesulfonamide] |
| 88% | CCS(=O)(=O)N[C@H]1[C@@H](F)CN(C(=O)N(C)C)[C@H]1Cc1cccc(-c2cccc(C)c2F)c1F [Example 408, (2S,3R,4S)-2-[(2,2′-difluoro-3′-methyl[1,1′-biphenyl]-3-yl)methyl]-3-[(ethanesulfonyl)amino]-4-fluoro-N,N-dimethylpyrrolidine-1-carboxamide] |
| 87% | CCS(=O)(=O)N[C@H]1[C@@H](F)CN(C(=O)C(C)C)[C@H]1Cc1cccc(-c2cc(F)ccc2F)c1F [Example 292, N-{(2S,3R,4S)-4-fluoro-1-(2-methylpropanoyl)-2-[(2,2′,5′-trifluoro[1,1′-biphenyl]-3-yl)methyl]pyrrolidin-3-yl}ethanesulfonamide] |
| 85% | O=C(N1CCC1)N1CC(F)(F)[C@H](NS(=O)(=O)C2CC2)[C@@H]1Cc1cccc(-c2cc(F)cc(F)c2)c1F [Example 525, N-{(2S,3R)-1-(azetidine-1-carbonyl)-4,4-difluoro-2-[(2,3′,5′-trifluoro[1,1′-biphenyl]-3-yl)methyl]pyrrolidin-3-yl]cyclopropanesulfonamide] |
| 92% | Cc1cccc(-c2cccc(C[C@H]3[C@@H](NS(=O)(=O)C4CC4)[C@@H](F)CN3C(=O)C3CCO3)c2F)c1 (stereo partly drawn) [Example 489, N-[(2S,3R,4S)-4-fluoro-2-[(2-fluoro-3′-methyl[1,1′-biphenyl]-3-yl)methyl]-1-(oxetane-2-carbonyl)pyrrolidin-3-yl]cyclopropanesulfonamide] |
| 97% | CCS(=O)(=O)N[C@@H]1[C@H](Cc2cccc(-c3cccc(OC)c3)c2F)N(C(=O)C23CC(C2)C3)CC1(F)F [Example 510, N-{(2S,3R)-1-(bicyclo[1.1.1]pentane-1-carbonyl)-4,4-difluoro-2-[(2-fluoro-3′-methoxy[1,1′-biphenyl]-3-yl)methyl]pyrrolidin-3-yl}ethanesulfonamdie] |
| 106% | CCS(=O)(=O)N[C@@H]1[C@H](Cc2cccc(-c3cccc(Cl)c3)c2F)N(C(=O)C(C)(C)O)CC1(F)F [Example 68, N-[(2S,3R)-2-[(3′-chloro-2-fluoro[1,1′-biphenyl]-3-yl)methyl]-4,4-difluoro-1-(2-hydroxy-2-methylpropanoyl)pyrrolidin-3-yl]ethanesulfonamide] |
| 98% | CCS(=O)(=O)N[C@H]1[C@@H](F)CN(C(=O)C2CC2)[C@H]1Cc1cccc(-c2cc(F)ccc2F)c1F [Example 238, N-{(2S,3R,4S)-1-(cyclopropanecarbonyl)-4-fluoro-2-[(2,2′,5′-trifluoro[1,1′-biphenyl]-3-yl)methyl]pyrrolidin-3-yl}ethanesulfonamide] |
| 96% | CCS(=O)(=O)N[C@H]1[C@@H](F)CN(C(=O)C2CCO2)[C@H]1Cc1cccc(-c2cc(C)cc(F)c2)c1F (stereo partly drawn) [Example 501, N-[(2S,3R,4S)-2-[(2,3′-difluoro-5′-methyl[1,1′-biphenyl]-3-yl)methyl]-4-fluoro-1-(oxetane-2-carbonyl)pyrrolidin-3-yl]ethanesulfonamide] |
| 106% | CCS(=O)(=O)N[C@@H]1[C@H](Cc2cccc(-c3ccccc3)c2F)N(C(=O)[C@H]2C[C@H](F)C2)CC1(F)F [Example 378, N-[(2S,3R)-4,4-difluoro-2-[(2-fluoro[1,1′-biphenyl]-3-yl)methyl]-1-((1r,3S)-3-fluorocyclobutane-1-carbonyl)pyrrolidin-3-yl]ethanesulfonamide] |
| 96% | O=C(C1CCO1)N1C[C@H](F)[C@H](NS(=O)(=O)C2CC2)[C@@H]1Cc1cccc(-c2cccc(F)c2F)c1F (stereo partly drawn) [Example 494, N-{(2S,3R,4S)-4-fluoro-1-(oxetane-2-carbonyl)-2-[(2,2′,3′-trifluoro[1,1′-biphenyl]-3-yl)methyl]pyrrolidin-3-yl}cyclopropanesulfonamide] |
| 102% | CS(=O)(=O)N[C@@H]1[C@H](Cc2cccc(-c3cccc(F)c3)c2)N(C(=O)C23CC(C2)C3)CC1(F)F [Example 21, N-{(2S,3R)-1-(bicyclo[1.1.1]pentane-1-carbonyl)-4,4-difluoro-2-[(3′-fluoro[1,1′-biphenyl]-3-yl)methyl]pyrrolidin-3-yl}methanesulfonamide] |
| 95% | O=C(C1CCO1)N1C[C@H](F)[C@H](NS(=O)(=O)C2CC2)[C@@H]1Cc1cccc(-c2ccccc2)c1F (stereo partly drawn) [Example 496, N-[(2S,3R,4S)-4-fluoro-2-[(2-fluoro[1,1′-biphenyl]-3-yl)methyl]-1-(oxetane-2-carbonyl)pyrrolidin-3-yl]cyclopropanesulfonamide] |
| 93% | CCS(=O)(=O)N[C@H]1[C@@H](F)CN(C(=O)C(C)(C)O)[C@H]1Cc1cccc(-c2cccc(Cl)c2)c1F [Example 346, N-[(2S,3R,4S)-2-[(3′-chloro-2-fluoro[1,1′-biphenyl]-3-yl)methyl]-4-fluoro-1-(2-hydroxy-2-methylpropanoyl)pyrrolidin-3-yl]ethanesulfonamide] |
| 98% | CCS(=O)(=O)N[C@H]1[C@@H](F)CN(C(=O)C2CCO2)[C@H]1Cc1cccc(-c2ccc(F)c(C)c2)c1F (stereo partly drawn) [Example 500, N-[(2S,3R,4S)-2-[(2,4′-difluoro-3′-methyl[1,1′-biphenyl]-3-yl)methyl]-4-fluoro-1-(oxetane-2-carbonyl)pyrrolidin-3-yl]ethanesulfonamide] |
| 91% | CC(C)C(=O)N1CC(F)(F)[C@H](NS(C)(=O)=O)[C@@H]1Cc1cccc(-c2cccc(F)c2)c1F [Example 98, N-[(2S,3R)-2-[(2,3′-difluoro[1,1′-biphenyl]-3-yl)methyl]-4,4-difluoro-1-(2-methylpropanoyl)pyrrolidin-3-yl]methanesulfonamide] |
| 102% | CC(C)C(=O)N1C[C@H](F)[C@H](NS(=O)(=O)C2CC2)[C@@H]1Cc1cccc(-c2cccc(F)c2)c1F [Example 382, N-[(2S,3R,4S)-2-[(2,3′-difluoro[1,1′-biphenyl]-3-yl)methyl]-4-fluoro-1-(2-methylpropanoyl)pyrrolidin-3-yl]cyclopropanesulfonamide] |
| 98% | CCS(=O)(=O)N[C@H]1[C@@H](F)CN(C(=O)C2(O)CCC2)[C@H]1Cc1cccc(-c2cccc(C)c2)c1F [Example 536, N-[(2S,3R,4S)-4-fluoro-2-[(2-fluoro-3′-methyl[1,1′-biphenyl]-3-yl)methyl]-1-(1-hydroxycyclobutane-1-carbonyl)pyrrolidin-3-yl]ethanesulfonamide] |
| 94% | CS(=O)(=O)N[C@@H]1[C@H](Cc2cccc(-c3cccc(F)c3F)c2F)N(C(=O)[C@H]2CCO2)CC1(F)F [Example 121, N-{(2S,3R)-4,4-difluoro-1-((2R)-oxetane-2-carbonyl)-2-[(2,2′,3′-trifluoro[1,1′-biphenyl]-3-yl)methyl]pyrrolidin-3-yl}methanesulfonamide] |
| 104% | O=C(C1CCO1)N1C[C@H](F)[C@H](NS(=O)(=O)C2CC2)[C@@H]1Cc1cccc(-c2cc(F)ccc2F)c1F (stereo partly drawn) [Example 481, N-{(2S,3R,4S)-4-fluoro-1-(oxetane-2-carbonyl)-2-[(2,2′,5′-trifluoro[1,1′-biphenyl]-3-yl)methyl]pyrrolidin-3-yl}cyclopropanesulfonamide] |
| 97% | CCS(=O)(=O)N[C@@H]1[C@H](Cc2cccc(-c3cccc(C(F)F)c3)c2F)N(C(=O)C(C)C)CC1(F)F [Example 507, N-[(2S,3R)-2-{[3′-(difluoromethyl)-2-fluoro[1,1′-biphenyl]-3-yl]methyl}-4,4-difluoro-1-(2-methylpropanoyl)pyrrolidin-3-yl]ethanesulfonamide] |
| 93% | Cc1cccc(-c2cccc(C[C@H]3[C@@H](NS(=O)(=O)N(C)C)C(F)(F)CN3C(=O)N3CCC3)c2F)c1F [Example 545, N′-{(2S,3R)-1-(azetidine-1-carbonyl)-2-[(2,2′-difluoro-3′-methyl[1,1′-biphenyl]-3-yl)methyl]-4,4-difluoropyrrolidin-3-yl}-N,N-dimethylsulfuric diamide] |
| 99% | Cc1cccc(-c2cccc(C[C@H]3[C@@H](NS(=O)(=O)N(C)C)C(F)(F)CN3C(=O)C3(O)CCC3)c2F)c1 [Example 427, N′-[(2S,3R)-4,4-difluoro-2-[(2-fluoro-3′-methyl[1,1′-biphenyl]-3-yl)methyl]-1-(1-hydroxycyclobutane-1-carbonyl)pyrrolidin-3-yl]-N,N-dimethylsulfuric diamide] |
